According to article PMC9221411, “Molecular Detection of Venous Thrombosis in Mouse Models Using SPECT/CT” (Biomolecules, 2022):

Target: T1, human thrombi (Homo sapiens, UniProt P02671+P02675+P02679)
T1 construct: Human plasma was allowed to clot for 90 min at 37 °C; from tissue; host or cells: citrated plasma of healthy human volunteers, clotted with CaCl2 and tissue factor
T1 sequence (P02671 36-629 limits assumed): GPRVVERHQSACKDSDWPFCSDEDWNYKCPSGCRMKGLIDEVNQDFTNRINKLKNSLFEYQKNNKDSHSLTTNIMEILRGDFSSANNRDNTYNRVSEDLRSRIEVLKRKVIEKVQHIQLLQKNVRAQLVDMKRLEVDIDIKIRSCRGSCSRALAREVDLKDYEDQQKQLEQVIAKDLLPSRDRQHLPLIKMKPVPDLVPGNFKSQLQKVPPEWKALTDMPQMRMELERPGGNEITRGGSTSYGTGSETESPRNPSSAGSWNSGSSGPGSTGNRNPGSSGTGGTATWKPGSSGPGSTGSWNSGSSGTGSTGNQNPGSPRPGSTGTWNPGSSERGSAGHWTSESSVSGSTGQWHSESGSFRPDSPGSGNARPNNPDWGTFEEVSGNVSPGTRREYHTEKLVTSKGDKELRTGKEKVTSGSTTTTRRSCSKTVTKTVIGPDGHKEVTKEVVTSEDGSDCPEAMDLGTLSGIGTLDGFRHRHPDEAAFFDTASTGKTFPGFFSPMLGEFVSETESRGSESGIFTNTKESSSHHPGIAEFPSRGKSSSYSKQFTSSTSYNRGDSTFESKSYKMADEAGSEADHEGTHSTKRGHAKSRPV
T1 sequence (P02675 45-491 limits assumed): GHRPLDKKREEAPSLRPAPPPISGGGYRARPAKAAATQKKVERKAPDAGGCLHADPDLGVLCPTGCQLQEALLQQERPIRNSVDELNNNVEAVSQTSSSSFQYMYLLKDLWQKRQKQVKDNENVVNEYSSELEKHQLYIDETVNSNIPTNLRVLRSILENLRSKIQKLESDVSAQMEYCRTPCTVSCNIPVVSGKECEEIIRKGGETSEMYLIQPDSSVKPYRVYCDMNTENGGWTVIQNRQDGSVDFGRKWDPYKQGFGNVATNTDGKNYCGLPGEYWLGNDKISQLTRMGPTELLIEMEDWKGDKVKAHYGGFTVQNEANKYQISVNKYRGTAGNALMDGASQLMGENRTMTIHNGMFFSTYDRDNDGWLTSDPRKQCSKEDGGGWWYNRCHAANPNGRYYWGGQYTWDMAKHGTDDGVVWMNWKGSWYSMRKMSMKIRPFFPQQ
T1 sequence (P02679 27-437 isoform P02679-2 limits assumed): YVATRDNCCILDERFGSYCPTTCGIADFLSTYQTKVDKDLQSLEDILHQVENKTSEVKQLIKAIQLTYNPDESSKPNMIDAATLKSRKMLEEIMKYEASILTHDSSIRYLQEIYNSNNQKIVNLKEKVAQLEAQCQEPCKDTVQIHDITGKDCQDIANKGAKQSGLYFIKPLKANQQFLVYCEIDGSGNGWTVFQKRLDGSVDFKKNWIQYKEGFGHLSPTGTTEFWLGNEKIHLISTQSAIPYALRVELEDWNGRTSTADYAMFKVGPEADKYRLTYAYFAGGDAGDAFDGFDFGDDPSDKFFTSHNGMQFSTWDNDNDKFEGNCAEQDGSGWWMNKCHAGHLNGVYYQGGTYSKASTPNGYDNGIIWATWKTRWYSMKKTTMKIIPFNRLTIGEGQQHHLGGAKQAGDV
Test: In vitro probe depletion: incorporation of rhodamine-labelled probes into human plasma thrombi (OD570 of supernatant)
Format: binding
Conditions: mean
Description: Human blood was collected from healthy volunteers by venipuncture using a vacutainer tube containing trisodium citrate after signing informed consent (Helsinki declaration). […] At the indicated time points, the OD570 of the supernatant was measured. Mouse blood was collected through a tail vein puncture, and plasma from 6 mice was pooled. Human and mouse thrombi were allowed to form as described above and subsequently incubated with 100 μ L or 16 ng/ μ L ^111 In-A16 or ^111 In-control-A16. After 30, 60 and 180 min, the thrombi were washed twice with 1 mL PBS, and the amount of tracer uptake in the thrombi was calculated using gamma counting (Wallac Wizard, Turku, Finland). Data were expressed as the percentage of tracer uptake in the thrombi to the total amount of tracer added.
LisB-A16 was compared with bi- α 2-AP-CA. Human plasma was allowed to clot for 90 min at 37 °C, after which a 3 μ M probe was added. The decrease in probe left in the solution was measured by colourimetry and represented probe incorporation into the human thrombi (Figure 2A). […]
Figure 2 In vitro probe depletion. […] OD (570 nm) in solution was measured after 1, 2, 3 and 4 h as a measure of probe incorporation in thrombi. […]
OD (570 nm) in soluti on was measured after 1, 2, 3 and 4 hours , as a measure of probe […]

## Ac-GNQEQVSPLTLLK1-K(LisB)K-NH 2 [LisB-A16, red fluorescent A16 probe conjugated with Lissamine rhodamine-B]
3 μM probe added to human plasma thrombi formed 90 min at 37 °C (14 mM CaCl2, 0.6 nM TF), OD570 of supernatant measured after 1, 2, 3 and 4 h, n = 4, lower = more incorporation
  absorption at 570 nm of probe left in solution (probe incorporation into human thrombi): 53%
15 μM probe added to human plasma thrombi formed 90 min at 37 °C, OD570 of supernatant after 1, 2, 3 and 4 h, n = 4 (Figure S2)
  remaining probe in solution: 61%
